According to patent US20230322815A1, “NOVEL COMPOUNDS AND THERAPEUTIC USES THEREOF” (University of Huddersfield, priority 2020, published 2023):
“Also recorded” adds a separate entry of the source.

Experiments:
chick embryo = experiment: Embryonic toxicity, HT29 in ovo study; assay type: in vivo, chick (White Leghorn); settings: for % Alive / % Dead / Alive (embryos at E18) / Dead (embryos at E18): HT29 study; for embryo tolerability: dose escalation showing no increased embryonic toxicity
Description: 10^6 tumor cells (H460, HT29 or HCT116) were grafted onto the upper chorioallantoic membrane (CAM) of the developing chick embryo on embryonic day 9 (E9). Access to the upper CAM was through a small hole drilled through the eggshell of fertilized White Leghorn eggs (into the air sac) on E9 (15 eggs per experimental group).
100 μl of freshly prepared experimental compound, vehicle control or standard-of-care (SoC) drug at their working concentrations were pipetted onto the tumor graft at E11, E13, E15 and E17. On day E18, the upper CAM (with tumor) was removed, washed by PBS buffer and then directly transferred in PFA (fixation for 48 hrs). After that, tumors were carefully cut away from normal CAM tissue and weighed.
Embryonic viability was checked daily. The number of dead embryos was also counted on E18, to evaluate treatment-induced embryo toxicity.

Src = Src (Homo sapiens, UniProt P12931); experiment: Cell-free kinase screen; assay type: biochemical; settings: 10 μM complex
Description: FIG. 9. Effects of [L2Zn3]^6+ and [L2Cu3]^6+ on the activity of purified human kinases. a,b, Percentage inhibition of the indicated kinases by [L2Zn3]^6+ (a) and [L2Cu3]^6+ (b) respectively at a concentration of 10 μM; full results are presented in the ESI. c,d, Kinases whose activity is stimulated by [L2Zn3]^6+ (c) or [L2Cu3]^6+ (d) complexes. e,f, Kinome map showing kinases inhibited (red) or stimulated (green) by [L2Zn3]^6+ (e) or [L2Cu3]^6+ (f). III ustration reproduced courtesy of Cell Signalling Technology Inc (www.cellsignal.com)
FIG. 16. The effect of [L2Zn3]^6+ and [L2Cu3]^6+ on the activity of recombinant human kinases. The compounds were submitted to the MRC Protein Phosphorylation and Ubiquitination Unit International Centre for Kinase Profiling (University of Dundee) and tested at a concentration of 10 μM against 140 human kinases (Premier Screen).
Given the ability of the Zn^2+ complex to dephosphorylate amino acids serine, tyrosine and threonine (FIG. 6) and the Cu^2+ complex to bind phenyl phosphate (FIG. 3), it was examined whether the complexes affect the activity of kinases. This was assessed in a cell-free screen of 140 kinases using purified recombinant human kinases and substrate peptides incubated in the presence of ^33P ATP and 10 μM complex or solvent control. […]

HCT116 tumors = experiment: Chick embryo chorioallantoic membrane (CAM) assay, in ovo efficacy; assay type: in vivo, human tumor cells on chick embryo CAM; settings: for doses giving statistically significant regression of tumor growth (mean tumor weight at E18): L2Zn3 70.5, 141, 282 μM, L2Cu3 75, 150, 300 μM
Description: FIG. 24. Activity of [L2Cu3]^6+ and [L2Zn3]^6+ against primary HCT116 tumors. The results presented represent the mean tumour weight ±SEM following treatment at 3 different doses of [L2Cu3]^6+ and [L2Zn3]^6+: L2Zn3 [1]=70.5 μM, L2Zn3 [2]=141 μM, L2Zn3 [3]=282 μM; L2Cu3 [1]=75 μM, L2Cu3[2]=150 μM, L2Cu3[3]=300 μM. SoC doxorubicin. Statistical analysis by one way ANOVA (*): 0.05≥p value >0.01; (**): 0.01≥p value >0.001; (***): 0.001≥p value; (****): 0.0001≥p value. Number per experimental group n=12-15.
FIG. 25. Evaluation of the effects of [L2Cu3]^6+ and [L2Zn3]^6+ on primary HCT116 metastasis to the lower CAM. Relative ALU expression (relative to chicken GAPDH) as a quantitive marker of metastasis of human cells to the lower CAM. Relative expression ±SEM. L2Zn3 [1]=70.5 μM, L2Zn3 [2]=141 μM, L2Zn3 [3]=282 μM; L2Cu3 [1]=75 μM, L2Cu3[2]=150 μM, L2Cu3[3]=300 μM. SoC doxorubicin. Number per experimental group n=7-8.
[L2Cu3]^6+ and [L2Zn3]^6+ were evaluated at three different doses for in ovo anti-cancer activity, toxicity and anti-metastatic activity against tumors initiated from three different human cancer cell line models (H460, HT29, HCT116), in the chick embryo chorioallantoic membrane (CAM) assay.
Each compound was provided to the contract research organisation (CRO) Inovotion (La Tronche, France) conducting the in ovo study, as a powder pre-weighed in single vials (2 equivalents of ligand, 3 equivalents of metal; and stored at room temperature). Before use, this was then dissolved in DMSO to 50 mM to generate a stock solution and further freshly diluted in RPM11640 or McCoys aqueous cell culture media for administration.
A standard of care (SoC) drug for the particular tumour type was tested concurrently as a comparative control for in vivo efficacy and toxicity evaluation. […]
On day E18, a 1 cm^2 portion of the lower CAM was collected (n=8 per group), stored at −20° C. and later processed to extract DNA. Samples were analysed for human genomic DNA (qPCR for Alu sequences) as a quantitative marker of tumor metastasis to the lower CAM.

[1] = dose [1]: L2Zn3 26.6 μM, L2Cu3 23.8 μM
[2] = dose [2]: L2Zn3 53.2 μM, L2Cu3 65.7 μM
[3] = dose [3]: L2Zn3 106.4 μM, L2Cu3 131.46 μM

Chain of Src (P12931 whole entry): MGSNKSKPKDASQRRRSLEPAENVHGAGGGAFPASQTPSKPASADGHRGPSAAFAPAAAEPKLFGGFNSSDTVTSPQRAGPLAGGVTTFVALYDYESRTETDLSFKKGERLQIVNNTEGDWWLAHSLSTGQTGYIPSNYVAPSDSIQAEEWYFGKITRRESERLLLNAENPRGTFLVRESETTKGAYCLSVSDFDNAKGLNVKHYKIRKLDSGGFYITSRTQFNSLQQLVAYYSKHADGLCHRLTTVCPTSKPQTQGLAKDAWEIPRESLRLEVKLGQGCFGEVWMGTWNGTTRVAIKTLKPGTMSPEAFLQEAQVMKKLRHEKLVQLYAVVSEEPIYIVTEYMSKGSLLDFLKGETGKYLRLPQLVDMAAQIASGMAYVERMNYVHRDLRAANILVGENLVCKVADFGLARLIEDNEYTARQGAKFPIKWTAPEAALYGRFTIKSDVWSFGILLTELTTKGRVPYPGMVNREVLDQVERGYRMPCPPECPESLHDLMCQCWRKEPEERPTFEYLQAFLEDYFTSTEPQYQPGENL

Row | Structure (SMILES) | % Alive (chick embryo; [1]) | % Dead (chick embryo; [1]) | Alive (embryos at E18) (chick embryo; [1]) | Dead (embryos at E18) (chick embryo; [1]) | % Alive (chick embryo; [2]) | % Dead (chick embryo; [2]) | Alive (embryos at E18) (chick embryo; [2]) | Dead (embryos at E18) (chick embryo; [2]) | % Alive (chick embryo; [3]) | % Dead (chick embryo; [3]) | Alive (embryos at E18) (chick embryo; [3]) | Dead (embryos at E18) (chick embryo; [3]) | embryo tolerability (chick embryo) | effect on Src kinase activity in the kinase screen (Src) | doses giving statistically significant regression of tumor growth (mean tumor weight at E18) (HCT116 tumors) | HCT116 metastatic load in the lower CAM (qPCR for Alu sequences) (HCT116 tumors; all three doses, comparable to SoC doxorubicin)
1 | [Cu+2].[Cu+2].[Cu+2].c1ccc(-c2csc(NCCN(CCNc3nc(-c4ccccn4)cs3)CCNc3nc(-c4ccccn4)cs3)n2)nc1.c1ccc(-c2csc(NCCN(CCNc3nc(-c4ccccn4)cs3)CCNc3nc(-c4ccccn4)cs3)n2)nc1 [[L2Cu3]^6+] | 71.43% | 28.57% | 10 | 4 | 85.71% | 14.29% | 12 | 2 | 92.31% | 7.69% | 12 | 1 | well tolerated | activity was increased | all three tested doses | 
2 | [Zn+2].[Zn+2].[Zn+2].c1ccc(-c2csc(NCCN(CCNc3nc(-c4ccccn4)cs3)CCNc3nc(-c4ccccn4)cs3)n2)nc1.c1ccc(-c2csc(NCCN(CCNc3nc(-c4ccccn4)cs3)CCNc3nc(-c4ccccn4)cs3)n2)nc1 [[L2Zn3]^6+] | 85.71% | 14.29% | 12 | 2 | 92.86% | 7.14% | 13 | 1 | 92.86% | 7.14% | 13 | 1 | well tolerated | activity was increased | the highest two doses tested | Decreases in HCT116 metastatic load; also recorded: strong regression tendency
